The term IC50 denotes the concentration at which inhibition is half-maximal.

Counter-ions that a name gives are not always drawn. Like-named read-outs stand apart in the source and are kept apart here.

Our source for the IC50 and Ki values is patent US8653100B2 (AbbVie Inc., priority 2008, dated 2014).

The target in one test is human GlyT1c (Homo sapiens (Human), UniProt P48067). The test can be described thus: [3H]-Glycine uptake into recombinant CHO cells expressing human GlyT1. The following applies: hGlyT1c_5_CHO cells, 200 nM [3H]-glycine. The format is cell-based. Summed up: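 hGlyT1c-expressing CHO cells plated at 20,000 cells/well and cultured 24 h; [3H]-glycine incorporation read continuously by solid-phase scintillation for up to 3 h. IC50 from four-parameter logistic fit using the linear uptake phase between 60 and 120 min.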

For the next test, the target named is human GlyT1c transporter (Homo sapiens (Human), UniProt P48067). The test can be described thus: Radioligand binding assay using recombinant CHO cell membranes expressing human GlyT1. The following applies: read-out: radioligand binding Kiapp. The procedure, abridged:
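Apparent Ki values were derived by Cheng-Prusoff from one-site IC50 fits of displacement curves. Membranes from recombinant CHO cells (human GlyT1c, 50 μg/ml) were incubated 1 h at room temperature with 0.5 nM [^3H]-(R)-NPTS and test compound (1% DMSO, pH 7.5 buffer), with 10 μM Org24598 for non-specific binding, then filtered and counted.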

[1] abbreviates: radioligand [3H]-(R)-NPTS (examples 1-19, 22-52, 54-87).
Setting [2] is: examples 88-204, radioligand not specified by footnote.

Sequence of human GlyT1c transporter (P48067 whole entry): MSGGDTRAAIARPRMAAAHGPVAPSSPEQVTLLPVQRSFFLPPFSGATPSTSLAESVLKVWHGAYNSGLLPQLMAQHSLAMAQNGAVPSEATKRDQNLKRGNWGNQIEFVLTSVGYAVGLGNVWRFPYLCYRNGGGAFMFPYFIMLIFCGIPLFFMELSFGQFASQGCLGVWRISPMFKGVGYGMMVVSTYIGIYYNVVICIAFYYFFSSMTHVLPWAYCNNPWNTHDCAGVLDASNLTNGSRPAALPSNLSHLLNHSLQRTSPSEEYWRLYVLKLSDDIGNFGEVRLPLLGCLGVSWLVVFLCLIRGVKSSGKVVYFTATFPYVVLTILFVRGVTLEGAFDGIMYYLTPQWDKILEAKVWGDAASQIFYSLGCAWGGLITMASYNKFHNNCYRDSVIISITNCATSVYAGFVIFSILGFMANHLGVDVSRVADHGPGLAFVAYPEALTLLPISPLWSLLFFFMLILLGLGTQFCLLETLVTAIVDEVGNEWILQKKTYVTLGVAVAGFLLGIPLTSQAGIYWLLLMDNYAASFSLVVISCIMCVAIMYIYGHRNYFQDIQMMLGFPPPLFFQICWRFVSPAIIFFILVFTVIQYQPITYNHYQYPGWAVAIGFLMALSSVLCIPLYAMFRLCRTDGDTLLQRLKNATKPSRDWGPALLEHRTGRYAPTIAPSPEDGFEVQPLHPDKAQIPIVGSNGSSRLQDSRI
Sequence of human GlyT1c (P48067 whole entry): as above

For `O=S(=O)(NCCOc1cc2c(cc1F)CCNC2C1(c2ccc(Cl)cc2)CCC1)c1cccnc1` (centres unmarked) [Example 14, Pyridine-3-sulfonic acid (2-{1-[1-(4-chloro-phenyl)-cyclobutyl]-6-fluoro-1,2,3,4-tetrahydro-isoquinolin-7-yloxy}-ethyl)-amide hydrochloride], the IC50 on human GlyT1c is ≤ 0.1 µM. Also, the Ki on human GlyT1c transporter (setting [1]) was ≤ 0.1 µM.
In the case of `CCCS(=O)(=O)NCCOc1cc2c(cc1F)CCNC2C1(c2ccc(Cl)cc2)CCC1` (centres unmarked) [Example 15, Propane-1-sulfonic acid (2-{1-[1-(4-chloro-phenyl)-cyclobutyl]-6-fluoro-1,2,3,4-tetrahydro-isoquinolin-7-yloxy}-ethyl)-amide hydrochloride], the 50% inhibitory concentration (IC50) on human GlyT1c is ≤ 0.1 µM. In addition, on human GlyT1c transporter (setting [1]), the Ki is ≤ 0.1 µM.
Consider `CCCCS(=O)(=O)NCCOc1ccc2c(c1)C(C1(c3ccc(Cl)cc3)CCC1)NCC2` (centres unmarked) [Example 16, Butane-1-sulfonic acid (2-{1-[1-(4-chloro-phenyl)-cyclobutyl]-1,2,3,4-tetrahydro-isoquinolin-7-yloxy}-ethyl)-amide hydrochloride], for which, at human GlyT1c, the IC50 is ≤ 0.1 µM. For the same compound, at human GlyT1c transporter (setting [1]), the Ki was ≤ 0.1 µM.
In the case of `O=S(=O)(NCCOc1ccc2c(c1)C(C1(c3ccc(Cl)cc3)CCC1)NCC2)c1cccs1` (centres unmarked) [Example 17, Thiophene-2-sulfonic acid (2-{1-[1-(4-chloro-phenyl)-cyclobutyl]-1,2,3,4-tetrahydro-isoquinolin-7-yloxy}-ethyl)-amide hydrochloride], the IC50 at human GlyT1c is ≤ 0.1 µM. Also, at human GlyT1c transporter (setting [1]), the Ki is ≤ 1 µM.
For `COc1ccccc1S(=O)(=O)NCCOc1ccc2c(c1)C(C1(c3ccc(Cl)cc3)CCC1)NCC2` (centres unmarked) [Example 18, N-(2-{1-[1-(4-Chloro-phenyl)-cyclobutyl]-1,2,3,4-tetrahydro-isoquinolin-7-yloxy}-ethyl)-2-methoxy-benzenesulfonamide hydrochloride], on human GlyT1c, the half-maximal inhibitory concentration (IC50) was ≤ 1 µM. At human GlyT1c transporter (setting [1]), the Ki was ≤ 10 µM.
Taken in the same sequence, the figures for `COc1cccc(S(=O)(=O)NCCOc2ccc3c(c2)C(C2(c4ccc(Cl)cc4)CCC2)NCC3)c1` (centres unmarked) [Example 19, N-(2-{1-[1-(4-Chloro-phenyl)-cyclobutyl]-1,2,3,4-tetrahydro-isoquinolin-7-yloxy}-ethyl)-3-methoxy-benzenesulfonamide hydrochloride] were ≤ 10 µM and ≤ 10 µM.
Take `O=S(=O)(NCCOc1ccc2c(c1)C(C1(c3ccc(Cl)cc3)CCC1)NCC2)c1ccc(-c2ccon2)s1` (centres unmarked) [Example 22, 5-Isoxazol-3-yl-thiophene-2-sulfonic acid (2-{1-[1-(4-chloro-phenyl)-cyclobutyl]-1,2,3,4-tetrahydro-isoquinolin-7-yloxy}-ethyl)-amide hydrochloride]: on human GlyT1c, the IC50 was ≤ 10 µM. Besides, on human GlyT1c transporter (setting [1]), the Ki was ≤ 100 µM.
Turning to `N#Cc1ccccc1S(=O)(=O)NCCOc1ccc2c(c1)C(C1(c3ccc(Cl)cc3)CCC1)NCC2` (centres unmarked) [Example 23, N-(2-{1-[1-(4-Chloro-phenyl)-cyclobutyl]-1,2,3,4-tetrahydro-isoquinolin-7-yloxy}-ethyl)-2-cyano-benzenesulfonamide hydrochloride], the IC50 on human GlyT1c is ≤ 10 µM. Moreover, at human GlyT1c transporter (setting [1]), the Ki is ≤ 10 µM.
On to `N#Cc1ccc(S(=O)(=O)NCCOc2ccc3c(c2)C(C2(c4ccc(Cl)cc4)CCC2)NCC3)cc1` (centres unmarked) [Example 24, N-(2-{1-[1-(4-Chloro-phenyl)-cyclobutyl]-1,2,3,4-tetrahydro-isoquinolin-7-yloxy}-ethyl)-4-cyano-benzenesulfonamide hydrochloride], for which the IC50 at human GlyT1c was ≤ 1 µM. Moreover, the Ki on human GlyT1c transporter (setting [1]) was ≤ 10 µM.
Turning to `O=S(=O)(NCCOc1ccc2c(c1)C(C1(c3ccc(Cl)cc3)CCC1)NCC2)c1ccccc1Cl` (centres unmarked) [Example 25, 2-Chloro-N-(2-{1-[1-(4-chloro-phenyl)-cyclobutyl]-1,2,3,4-tetrahydro-isoquinolin-7-yloxy}-ethyl)-benzenesulfonamide hydrochloride], the IC50 on human GlyT1c was ≤ 1 µM. The Ki at human GlyT1c transporter (setting [1]) is ≤ 1 µM.
As for `O=S(=O)(NCCOc1ccc2c(c1)C(C1(c3ccc(Cl)cc3)CCC1)NCC2)c1cccc(Cl)c1` (centres unmarked) [Example 26, 3-Chloro-N-(2-{1-[1-(4-chloro-phenyl)-cyclobutyl]-1,2,3,4-tetrahydro-isoquinolin-7-yloxy}-ethyl)-benzenesulfonamide hydrochloride], the concentration for half-maximal inhibition (IC50) at human GlyT1c is ≤ 1 µM. On human GlyT1c transporter (setting [1]), the Ki is ≤ 10 µM.
For `O=S(=O)(NCCOc1ccc2c(c1)C(C1(c3ccc(Cl)cc3)CCC1)NCC2)c1ccc(Cl)cc1` (centres unmarked) [Example 27, 4-Chloro-N-(2-{1-[1-(4-chloro-phenyl)-cyclobutyl]-1,2,3,4-tetrahydro-isoquinolin-7-yloxy}-ethyl)-benzenesulfonamide hydrochloride] the same measures were ≤ 1 µM and ≤ 1 µM.
For `O=S(=O)(NCCOc1ccc2c(c1)C(C1(c3ccc(Cl)cc3)CCC1)NCC2)C1CC1` (centres unmarked) [Example 28, Cyclopropanesulfonic acid (2-{1-[1-(4-chloro-phenyl)-cyclobutyl]-1,2,3,4-tetrahydro-isoquinolin-7-yloxy}-ethyl)-amide hydrochloride] the same measures were ≤ 0.1 µM and ≤ 0.1 µM.
For `O=S(=O)(NCCOc1ccc2c(c1)C(C1(c3ccc(Cl)cc3)CCC1)NCC2)c1ccc(Cl)nc1` (centres unmarked) [Example 29, 6-Chloro-pyridine-3-sulfonic acid (2-{1-[1-(4-chloro-phenyl)-cyclobutyl]-1,2,3,4-tetrahydro-isoquinolin-7-yloxy}-ethyl)-amide hydrochloride] the same measures were ≤ 1 µM and ≤ 1 µM.
As for `O=S(=O)(NCCOc1ccc2c(c1)C(C1(c3ccc(Cl)cc3)CCC1)NCC2)c1cccc2cccnc12` (centres unmarked) [Example 30, Quinoline-8-sulfonic acid (2-{1-[1-(4-chloro-phenyl)-cyclobutyl]-1,2,3,4-tetrahydro-isoquinolin-7-yloxy}-ethyl)-amide hydrochloride], at human GlyT1c, the IC50 was ≤ 1 µM. Besides, the Ki on human GlyT1c transporter (setting [1]) was ≤ 10 µM.
Taken in the same sequence, the figures for `COc1ccc(S(=O)(=O)NCCOc2ccc3c(c2)C(C2(c4ccc(Cl)cc4)CCC2)NCC3)cc1` (centres unmarked) [Example 31, N-(2-{1-[1-(4-Chloro-phenyl)-cyclobutyl]-1,2,3,4-tetrahydro-isoquinolin-7-yloxy}-ethyl)-4-methoxy-benzenesulfonamide hydrochloride] were ≤ 1 µM and ≤ 1 µM.
For the compound `O=S(=O)(Cc1ccccc1)NCCOc1ccc2c(c1)C(C1(c3ccc(Cl)cc3)CCC1)NCC2` (centres unmarked) [Example 32, N-(2-{1-[1-(4-Chloro-phenyl)-cyclobutyl]-1,2,3,4-tetrahydro-isoquinolin-7-yloxy}-ethyl)-C-phenyl-methanesulfonamide hydrochloride], on human GlyT1c, the concentration for half-maximal inhibition (IC50) was ≤ 10 µM. Further, at human GlyT1c transporter (setting [1]), the Ki is ≤ 10 µM.
In the case of `O=S(=O)(NCCOc1ccc2c(c1)C(C1(c3ccc(Cl)cc3)CCC1)NCC2)c1ccccc1` (centres unmarked) [Example 62, N-(2-{1-[1-(4-Chloro-phenyl)-cyclobutyl]-1,2,3,4-tetrahydro-isoquinolin-7-yloxy}-ethyl)-benzenesulfonamide hydrochloride], the concentration for half-maximal inhibition (IC50) on human GlyT1c is ≤ 1 µM. Further, the Ki on human GlyT1c transporter (setting [1]) is ≤ 1 µM.
Consider `CCCS(=O)(=O)NCCOc1ccc2c(c1)C(C1(c3ccc(F)cc3)CCC1)NCC2` (centres unmarked) [Example 65, N-[2-({1-[1-(4-Fluorophenyl)cyclobutyl]-1,2,3,4-tetrahydroisoquinolin-7-yl}oxy)ethyl]propane-1-sulfonamide hydrochloride], for which, on human GlyT1c, the IC50 was ≤ 0.1 µM. Besides, on human GlyT1c transporter (setting [1]), the Ki was ≤ 0.1 µM.
In the case of `CCCS(=O)(=O)NCCOc1ccc2c(c1)C(C1(c3ccc(F)cc3)CCC1)N(C(=N)N)CC2` (centres unmarked) [Example 72, 1-[1-(4-Fluorophenyl)cyclobutyl]-7-{2-[(propylsulfonyl)amino]ethoxy}-3,4-dihydroisoquinoline-2(1H)-carboximidamide acetate], the IC50 at human GlyT1c was ≤ 1 µM. Besides, at human GlyT1c transporter (setting [1]), the Ki was ≤ 10 µM.
Taken in the same sequence, the figures for `CCCS(=O)(=O)N1CCN(c2cc3c(cc2OC)C(C2(c4ccc(Cl)cc4)CCC2)N(S(=O)(=O)CCC)CC3)CC1` (centres unmarked) [Example 84, 1-[1-(4-Chlorophenyl)cyclobutyl]-7-methoxy-2-(propylsulfonyl)-6-[4-(propylsulfonyl)-piperazin-1-yl]-1,2,3,4-tetrahydroisoquinoline] were ≤ 100 µM and ≤ 10 µM.
Consider `O=S(=O)(NCCOc1ccc2c(c1)C(C1(c3cccc(F)c3)CCC1)NCC2)c1cccnc1` (centres unmarked) [Example 101, N-[2-({1-[1-(3-fluorophenyl)cyclobutyl]-1,2,3,4-tetrahydroisoquinolin-7-yl}oxy)ethyl]pyridine-3-sulfonamide dihydrochloride], for which the IC50 on human GlyT1c was ≤ 1 µM. In addition, at human GlyT1c transporter (setting [2]), the Ki is ≤ 0.1 µM.
As to `CC(C)(O)CS(=O)(=O)NCCOc1ccc2c(c1)C(C1(c3ccc(Cl)cc3)CCC1)NCC2` (centres unmarked) [Example 103, N-[2-({1-[1-(4-Chlorophenyl)cyclobutyl]-1,2,3,4-tetrahydroisoquinolin-7-yl}oxy)ethyl]-2-hydroxy-2-methylpropane-1-sulfonamide hydrochloride], on human GlyT1c, the IC50 is ≤ 0.1 µM. For the same compound, the Ki at human GlyT1c transporter (setting [2]) is ≤ 0.1 µM.
Take `O=S(=O)(NCCOc1ccc2c(c1)C(C1(c3cccc(F)c3)CCC1)NCC2)c1cccs1` (centres unmarked) [Example 106, N-[2-({1-[1-(3-Fluorophenyl)cyclobutyl]-1,2,3,4-tetrahydroisoquinolin-7-yl}oxy)ethyl]thiophene-2-sulfonamide hydrochloride]: the IC50 at human GlyT1c is ≤ 10 µM. On human GlyT1c transporter (setting [2]), the Ki is ≤ 1 µM.
In the case of `O=S(=O)(NCc1ccc2c(c1)C(C1(c3ccc(Cl)cc3)CCC1)NCC2)c1cccnc1` (centres unmarked) [Example 108, N-({1-[1-(4-Chlorophenyl)cyclobutyl]-1,2,3,4-tetrahydroisoquinolin-7-yl}methyl)pyridine-3-sulfonamide dihydrochloride], at human GlyT1c, the IC50 was ≤ 10 µM. Moreover, on human GlyT1c transporter (setting [2]), the Ki was ≤ 1 µM.
